Where a name gives a salt, the structure may show the parent alone.
Experiment: Solubility determinations of crystalline forms of racemic eperisone in water
Format: physicochemical
Conditions: for Solubility: HPLC-grade water, slurry on rotating wheel 46.5 hours at ambient temperature (about 19° C.), filtrate dried and weighed; for Relative solubility among the forms: ranking of the Table 10 solubilities in water
Method: The solubilities of the crystalline forms of racemic eperisone were determined as follows. Each experiment was conducted in a one-dram vial by adding weighed amounts of solid salt in portions to a weighed amount of HPLC-grade water until a slurry was obtained. In the case of the mesylate salt, a slurry was not obtained; solid addition was stopped while a solution was still present. Each vial was capped and placed on a rotating wheel for 46.5 hours at ambient temperature. Each vial was removed from the wheel. The ambient temperature at the time of removal was about 19° C. The contents of each vial were vacuum filtered through Whatman Grade 1 filter paper. Solids adhering to the inside of the vial were not recovered. Each filtrate was weighed, dried under diaphragm pump pressure over phosphorus pentoxide, and the resulting solid residue was weighed. Each filter cake was allowed to dry in the air overnight and was weighed.

CCc1ccc(C(=O)C(C)CN2CCCCC2)cc1 (racemic) [Mesylate, (2RS)-1-(4-ethylphenyl)-2-methyl-3-piperidin-1-yl-propan-1-one]
Solubility: >392.2 mg/mL | Relative solubility among the forms (listed as racemic eperisone mesylate): most soluble

CCc1ccc(C(=O)C(C)CN2CCCCC2)cc1 (racemic) [Fumarate, (2RS)-1-(4-ethylphenyl)-2-methyl-3-piperidin-1-yl-propan-1-one]
Solubility: 16.8 mg/mL | Relative solubility among the forms (listed as racemic eperisone fumarate): least soluble

CCc1ccc(C(=O)C(C)CN2CCCCC2)cc1 (racemic) [Hydrochloride, (2RS)-1-(4-ethylphenyl)-2-methyl-3-piperidin-1-yl-propan-1-one, reference compound]
Solubility: 210.7 mg/mL

CCc1ccc(C(=O)C(C)CN2CCCCC2)cc1 (racemic) [Succinate, (2RS)-1-(4-ethylphenyl)-2-methyl-3-piperidin-1-yl-propan-1-one]
Solubility: 114.7 mg/mL

CCc1ccc(C(=O)C(C)CN2CCCCC2)cc1 (racemic) [Maleate, (2RS)-1-(4-ethylphenyl)-2-methyl-3-piperidin-1-yl-propan-1-one]
Solubility: 20.7 mg/mL
